The source of these data is ChEMBL document CHEMBL1201862, “PubChem BioAssay data set” (2004).

Calls of active or inactive are those of the source.

For assay [1], the target named is Diphosphomevalonate decarboxylase (Streptococcus pneumoniae serotype 2 (strain D39 / NCTC 7466), UniProt Q9FD53). Nature of the assay: S. pneumoniae DPM-DC inhibition retest, confirmation, biochemical, cuvette format, coupled NADH fluorescence (AID 1028). It counts as functional.
In assay [2] the target is Peroxisome proliferator-activated receptor gamma/Nuclear receptor corepressor 2 (Homo sapiens, UniProt P37231+Q9Y618). Nature of the assay: Counterscreen for NR2E3 inverse agonists: TR-FRET-based biochemical high throughput dose response assay to identify inverse agonists of the interaction between peroxisome proliferator-activated receptor gamma (PPARg) and nuclear receptor co-repressor 2 (NCOR2). It is filed as functional. For orientation: Counterscreens check selectivity or assay interference.

For assay [3], the target named is Photoreceptor-specific nuclear receptor (Homo sapiens, UniProt Q9Y5X4). Nature of the assay: NR2E3 inverse agonists, dose response, biochemical, TR-FRET (AID 463256). It counts as functional. A general note: TR-FRET usually uses a lanthanide donor and a delayed reading to cut background.
Chain of Photoreceptor-specific nuclear receptor (Q9Y5X4 whole entry): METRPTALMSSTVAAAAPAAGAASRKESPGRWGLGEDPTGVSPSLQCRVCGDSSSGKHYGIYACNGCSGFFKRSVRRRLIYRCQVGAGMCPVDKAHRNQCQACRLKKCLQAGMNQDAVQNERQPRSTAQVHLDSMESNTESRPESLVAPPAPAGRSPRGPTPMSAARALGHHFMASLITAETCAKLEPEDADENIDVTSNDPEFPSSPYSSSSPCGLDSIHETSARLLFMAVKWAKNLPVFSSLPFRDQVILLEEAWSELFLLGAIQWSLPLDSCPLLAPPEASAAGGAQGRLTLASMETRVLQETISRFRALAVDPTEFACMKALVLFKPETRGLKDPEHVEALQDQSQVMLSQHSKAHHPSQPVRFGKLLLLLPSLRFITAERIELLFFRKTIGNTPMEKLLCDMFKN
For assay [4], the target named is E3 ubiquitin-protein ligase Mdm2 (Homo sapiens, UniProt Q00987). Nature of the assay: enhancers of MDM2-luciferase reporter signal, concentration-effect titration, project on inhibitors of MDM2 ubiquitin ligase, cellular assay, luminescent readout, 384-well plate format (AID 1394).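 Further: MDM2 E3 inhibitors raise luminescence so EC50 is for signal enhancement.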 It counts as functional. On the technique in general: In a reporter assay the amount or activity of a reporter protein is the signal.
Chain of E3 ubiquitin-protein ligase Mdm2 (Q00987 whole entry): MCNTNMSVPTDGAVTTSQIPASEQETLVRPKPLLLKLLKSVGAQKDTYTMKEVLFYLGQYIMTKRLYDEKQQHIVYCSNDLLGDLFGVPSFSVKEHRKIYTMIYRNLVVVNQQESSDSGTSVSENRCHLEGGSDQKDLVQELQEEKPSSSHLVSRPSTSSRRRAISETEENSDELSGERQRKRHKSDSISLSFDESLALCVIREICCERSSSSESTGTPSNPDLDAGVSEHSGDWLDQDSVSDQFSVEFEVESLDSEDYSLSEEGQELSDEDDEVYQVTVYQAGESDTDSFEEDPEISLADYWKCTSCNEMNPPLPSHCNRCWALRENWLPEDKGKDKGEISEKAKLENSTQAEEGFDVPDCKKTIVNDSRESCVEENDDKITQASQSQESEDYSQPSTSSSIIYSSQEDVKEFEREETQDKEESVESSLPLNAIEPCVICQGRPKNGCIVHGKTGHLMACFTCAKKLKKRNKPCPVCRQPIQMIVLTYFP

Assay [5] addresses Dual specificity protein phosphatase 6 (Rattus norvegicus, UniProt Q64346). Nature of the assay: MKP-3 phosphatase inhibitors, primary screen, biochemical, rat enzyme, in vitro (AID 425).
Assay [6] can be described thus: Fluorescence Cell-Based Dose Response to Identify Inhibitors of Thrombin Receptor-Activating Peptide SFLLRN-Mediated P-Selectin Induction on Platelets. [Related pubchem assays: 1663 (Primary HTS), 1889 (retest at dose ), 1891 (counterscreen), 1678 (Project Summary)]. It is filed as functional.
The nature of assay [7]: Luminescence Cell-Based Dose Confirmation HTS to Identify Inhibitors of Platelet Dense Granule Release. [Related pubchem assays: 1663 (Primary HTS), 1678 (Summary of Project)]. It is filed as functional.
Assay [8] concerns the target Luciferin 4-monooxygenase (Photinus pyralis, UniProt P08659). Nature of the assay: firefly luciferase enzyme inhibitors, dose response, biochemical, luminescence (AID 1891).
The next assay has as its target Prothrombin (Homo sapiens, UniProt P00734). Nature of the assay: Thrombin 1536 HTS Dose Response Confirmation. [Related pubchem assays: 1046 (Thrombin 1536 HTS; hits were confirmed in this assay)]. It counts as functional.
The target in assay [9] is Mitogen-activated protein kinase 10 (Homo sapiens, UniProt P53779). Nature of the assay: Dose response biochemical screening assay for inhibitors of c-Jun N-Terminal Kinase 3 (JNK3). [Related pubchem assays: 746 ].
Chain of Mitogen-activated protein kinase 10 (P53779 whole entry): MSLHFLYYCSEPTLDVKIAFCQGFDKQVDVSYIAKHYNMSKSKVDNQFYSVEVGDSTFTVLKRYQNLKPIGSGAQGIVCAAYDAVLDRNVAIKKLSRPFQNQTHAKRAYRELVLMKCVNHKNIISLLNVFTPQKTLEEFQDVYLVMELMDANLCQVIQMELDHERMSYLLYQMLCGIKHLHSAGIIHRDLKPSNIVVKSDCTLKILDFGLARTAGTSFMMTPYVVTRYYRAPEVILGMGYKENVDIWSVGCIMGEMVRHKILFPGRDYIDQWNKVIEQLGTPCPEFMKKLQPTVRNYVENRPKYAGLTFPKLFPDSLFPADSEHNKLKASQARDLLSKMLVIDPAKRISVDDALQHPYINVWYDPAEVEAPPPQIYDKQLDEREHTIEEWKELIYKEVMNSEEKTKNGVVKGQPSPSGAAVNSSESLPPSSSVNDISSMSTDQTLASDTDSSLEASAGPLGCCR
The target of assay [10] is T1, SUMO-activating enzyme (Homo sapiens, UniProt Q9UBT2). Nature of the assay: inhibitors of in vitro SUMOylation cascade, primary screen, biochemical, HTRF, uHTS (AID 2006). It counts as protein-complex assay.
T1 sequence (Q9UBE0 whole entry): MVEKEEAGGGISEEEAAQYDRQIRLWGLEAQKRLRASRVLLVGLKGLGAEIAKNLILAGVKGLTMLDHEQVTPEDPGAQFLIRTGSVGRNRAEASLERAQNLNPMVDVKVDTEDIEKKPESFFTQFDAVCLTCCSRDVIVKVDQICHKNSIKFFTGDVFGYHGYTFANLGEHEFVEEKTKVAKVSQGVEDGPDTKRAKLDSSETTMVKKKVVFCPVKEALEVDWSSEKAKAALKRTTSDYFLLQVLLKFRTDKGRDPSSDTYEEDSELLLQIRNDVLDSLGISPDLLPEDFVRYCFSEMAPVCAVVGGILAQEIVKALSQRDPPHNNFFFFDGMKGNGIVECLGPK
T1 sequence (Q9UBT2 whole entry): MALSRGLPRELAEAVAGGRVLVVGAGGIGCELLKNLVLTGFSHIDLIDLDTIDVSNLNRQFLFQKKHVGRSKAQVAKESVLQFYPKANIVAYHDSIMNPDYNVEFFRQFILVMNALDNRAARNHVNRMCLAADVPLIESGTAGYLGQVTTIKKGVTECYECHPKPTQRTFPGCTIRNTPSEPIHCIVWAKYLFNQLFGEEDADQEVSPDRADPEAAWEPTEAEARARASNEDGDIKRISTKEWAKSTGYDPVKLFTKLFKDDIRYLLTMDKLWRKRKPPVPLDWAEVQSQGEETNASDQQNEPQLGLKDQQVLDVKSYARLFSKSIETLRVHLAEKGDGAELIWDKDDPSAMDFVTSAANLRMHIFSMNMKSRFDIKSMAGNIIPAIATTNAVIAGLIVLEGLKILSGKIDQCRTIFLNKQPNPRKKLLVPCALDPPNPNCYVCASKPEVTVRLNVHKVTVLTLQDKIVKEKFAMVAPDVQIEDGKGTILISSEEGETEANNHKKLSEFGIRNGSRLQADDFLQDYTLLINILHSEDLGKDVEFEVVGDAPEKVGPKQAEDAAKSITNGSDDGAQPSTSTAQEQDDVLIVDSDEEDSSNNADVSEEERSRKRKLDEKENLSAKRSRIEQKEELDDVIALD
In assay [11] the target is T1, SUMO-activating enzyme. Nature of the assay: SUMOylation inhibitor hit validation, confirmation, SUMOylation inhibitor project, biochemical, AlphaScreen (AID 2018). It is filed as functional.
Another assay addresses SUMO E1/E2 (Homo sapiens, UniProt P63279+Q9UBE0+Q9UBT2). Nature of the assay: SAR analysis of SUMOylation using HTRF in an in-Vitro dose response assay. [Related pubchem assays (depositor defined):AID2006, AID2011, AID2018, AID2069, AID2658]. It counts as functional.
Assay [12] concerns the target T2, Tyrosyl-DNA phosphodiesterase 2 (Homo sapiens, UniProt O95551).
T2 sequence (O95551 whole entry): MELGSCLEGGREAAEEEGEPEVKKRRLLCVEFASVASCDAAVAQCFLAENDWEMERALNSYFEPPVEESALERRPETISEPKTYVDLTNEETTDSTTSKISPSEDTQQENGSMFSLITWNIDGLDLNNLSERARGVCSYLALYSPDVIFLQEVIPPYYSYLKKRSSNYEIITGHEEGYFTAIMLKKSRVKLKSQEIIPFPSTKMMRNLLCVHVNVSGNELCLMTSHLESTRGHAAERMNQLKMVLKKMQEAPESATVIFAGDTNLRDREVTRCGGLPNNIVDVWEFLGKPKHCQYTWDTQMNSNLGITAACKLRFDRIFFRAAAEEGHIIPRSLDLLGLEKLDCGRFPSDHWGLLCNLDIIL
Nature of the assay: human TDP2 enzyme inhibitors, dose response, biochemical, epi absorbance, IC50 (AID 743297).

Another assay deals with T3, Aminopeptidase N (Plasmodium falciparum FcB1/Columbia, UniProt O96935).
T3 sequence (O96935 whole entry): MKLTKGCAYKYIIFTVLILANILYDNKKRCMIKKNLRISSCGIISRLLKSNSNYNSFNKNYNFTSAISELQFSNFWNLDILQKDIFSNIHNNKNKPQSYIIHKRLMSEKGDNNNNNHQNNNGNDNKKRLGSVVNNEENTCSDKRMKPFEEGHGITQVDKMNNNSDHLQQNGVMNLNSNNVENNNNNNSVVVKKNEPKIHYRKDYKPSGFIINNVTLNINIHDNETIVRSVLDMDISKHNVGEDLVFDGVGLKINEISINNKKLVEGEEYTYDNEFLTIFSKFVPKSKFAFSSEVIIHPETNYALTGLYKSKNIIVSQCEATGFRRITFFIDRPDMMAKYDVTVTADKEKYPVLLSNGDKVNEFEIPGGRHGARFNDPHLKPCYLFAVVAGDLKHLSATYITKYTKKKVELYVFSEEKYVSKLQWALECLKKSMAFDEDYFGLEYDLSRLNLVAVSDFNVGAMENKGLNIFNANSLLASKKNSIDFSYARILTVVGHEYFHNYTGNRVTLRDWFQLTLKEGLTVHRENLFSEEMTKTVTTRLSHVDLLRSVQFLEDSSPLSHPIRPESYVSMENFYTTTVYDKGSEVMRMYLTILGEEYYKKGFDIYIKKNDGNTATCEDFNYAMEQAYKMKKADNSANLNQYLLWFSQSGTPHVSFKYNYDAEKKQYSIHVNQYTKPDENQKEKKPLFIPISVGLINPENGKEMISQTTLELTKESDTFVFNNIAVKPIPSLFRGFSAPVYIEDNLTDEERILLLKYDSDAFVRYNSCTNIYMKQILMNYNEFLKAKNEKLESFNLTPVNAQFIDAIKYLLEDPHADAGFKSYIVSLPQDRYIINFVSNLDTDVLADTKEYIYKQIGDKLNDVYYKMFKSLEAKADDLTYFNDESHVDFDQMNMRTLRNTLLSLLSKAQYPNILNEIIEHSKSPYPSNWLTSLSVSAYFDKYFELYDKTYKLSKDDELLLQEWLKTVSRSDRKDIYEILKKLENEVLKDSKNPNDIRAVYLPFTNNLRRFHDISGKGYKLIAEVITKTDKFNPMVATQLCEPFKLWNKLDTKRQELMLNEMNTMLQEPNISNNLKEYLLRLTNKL
Nature of the assay: P. falciparum M1AAP inhibitors, biochemical, fluorogenic H-Leu-NHMec substrate, 1536-well (AID 1445). Also on record: species or system Plasmodium falciparum 3D7, 3D7.

Assay [13] addresses Heat shock protein HSP 90-alpha (Homo sapiens, UniProt P07900). Nature of the assay: Luminescence-based dose response biochemical high throughput screening assay for inhibitors of the Heat Shock Protein 90 (HSP90). [Related pubchem assays: 1831 (Summary AID.), 1846 (Confirmation screen.), 1789 (Primary screen.)].
Assay [14] in a line: cytotoxicity toward Colo320 cells – cell-based, CellTiter-Glo luminescence, IC50, dose response (AID 1117334). It counts as functional. The following applies: COLO 320.
Assay [15] can be described thus: SNU-C1 cell viability reduction, dose response, CellTiter-Glo luminescence (AID 1117323). It is filed as functional, cell-based.
The nature of assay [16]: Concentration-dependent survival of SW480 colon cancer line, luminescence detection with CellTiter-Glo, half-maximal inhibitory concentration (AID 1117338). It is filed as functional.
The nature of assay [17]: HeLa 4N DNA content increase, dose response, cell-based, IC50 (AID 1117351). It counts as functional.
Assay [18] in a line: cytotoxicity toward HCT116 cells – cell-based, CellTiter-Glo luminescence, IC50, dose response (AID 1117332). It is filed as functional. The following applies: HCT-116.
A short description of assay [19]: HeLa 2N DNA content increase, dose response, cell-based, IC50 (AID 1117349). It counts as functional.
Assay [20] is described as follows: CellTiter-Glo luminescent dose response of DLD-1 viability loss (AID 1117352). It counts as functional.
The subject of another assay is Danio rerio. Nature of the assay: In Vivo Angiogenesis Dose-Response Confirmation. [Related pubchem assays: 732 (Assay preceding this confirmatory assay.)]. It is filed as functional, organism-based.
The nature of assay [21]: RKO cell viability reduction, dose response, CellTiter-Glo luminescence (AID 1117322). It is filed as functional.
A short description of assay [22]: cytotoxicity toward HT-29 cells – cell-based, CellTiter-Glo luminescence, IC50, dose response (AID 1117330). It counts as functional.

Chain of Diphosphomevalonate decarboxylase (Q9FD53 whole entry): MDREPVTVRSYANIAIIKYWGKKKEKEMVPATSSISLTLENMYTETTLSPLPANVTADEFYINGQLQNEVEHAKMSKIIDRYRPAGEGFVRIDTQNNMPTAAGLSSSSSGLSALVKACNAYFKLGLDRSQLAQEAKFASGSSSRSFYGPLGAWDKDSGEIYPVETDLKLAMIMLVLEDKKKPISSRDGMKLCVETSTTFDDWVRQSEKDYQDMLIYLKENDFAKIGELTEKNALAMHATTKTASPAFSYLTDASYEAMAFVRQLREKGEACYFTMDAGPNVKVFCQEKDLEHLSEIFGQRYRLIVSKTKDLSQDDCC
Chain of Dual specificity protein phosphatase 6 (Q64346 whole entry): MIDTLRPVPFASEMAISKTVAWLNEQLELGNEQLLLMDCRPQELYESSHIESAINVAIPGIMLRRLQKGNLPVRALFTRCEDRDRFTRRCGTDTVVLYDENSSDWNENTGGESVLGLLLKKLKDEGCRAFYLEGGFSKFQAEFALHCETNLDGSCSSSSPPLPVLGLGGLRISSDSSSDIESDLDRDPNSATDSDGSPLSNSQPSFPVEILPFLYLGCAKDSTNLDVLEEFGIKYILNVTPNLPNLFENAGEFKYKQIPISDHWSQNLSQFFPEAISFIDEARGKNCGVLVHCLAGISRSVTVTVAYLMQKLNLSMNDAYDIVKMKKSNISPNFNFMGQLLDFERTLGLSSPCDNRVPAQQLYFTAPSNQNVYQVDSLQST
Chain of Luciferin 4-monooxygenase (P08659 whole entry): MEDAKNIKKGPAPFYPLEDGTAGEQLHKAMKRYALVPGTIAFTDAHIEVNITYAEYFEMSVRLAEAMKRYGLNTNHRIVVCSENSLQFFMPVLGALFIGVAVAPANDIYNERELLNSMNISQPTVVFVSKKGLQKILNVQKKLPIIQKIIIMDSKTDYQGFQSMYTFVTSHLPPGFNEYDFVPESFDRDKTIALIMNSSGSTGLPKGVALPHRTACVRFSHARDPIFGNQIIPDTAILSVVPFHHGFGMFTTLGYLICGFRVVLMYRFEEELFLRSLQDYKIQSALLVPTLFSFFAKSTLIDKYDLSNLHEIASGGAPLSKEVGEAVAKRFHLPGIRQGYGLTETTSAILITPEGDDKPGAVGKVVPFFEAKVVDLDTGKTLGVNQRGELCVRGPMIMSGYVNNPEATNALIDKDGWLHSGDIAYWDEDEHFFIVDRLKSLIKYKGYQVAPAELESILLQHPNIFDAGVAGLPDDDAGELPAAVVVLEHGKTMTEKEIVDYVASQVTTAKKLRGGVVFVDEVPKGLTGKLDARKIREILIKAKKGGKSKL
Chain of SUMO E1/E2 (Q9UBE0 whole entry): as the sequence (Q9UBE0 whole entry) above
Chain of SUMO E1/E2 (Q9UBT2 whole entry): as the sequence (Q9UBT2 whole entry) above
Chain of SUMO E1/E2 (P63279 whole entry): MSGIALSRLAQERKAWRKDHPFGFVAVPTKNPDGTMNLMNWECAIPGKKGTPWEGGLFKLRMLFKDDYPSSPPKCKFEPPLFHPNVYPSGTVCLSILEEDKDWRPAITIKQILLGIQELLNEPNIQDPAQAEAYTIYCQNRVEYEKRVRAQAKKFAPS

What is called IC50 is the point on the concentration scale where inhibition reaches its midpoint. Take `Cc1ccc(-n2sc3ccccc3c2=O)cc1S(=O)(=O)N1CCCC1`: the IC50 in [1] is 4.15 µM (active).

Turning to `CC(=O)Nc1cccc(Oc2nc(C(F)(F)F)nc3ccccc23)c1`, the IC50 in [2] was > 39.8 µM (not active); in [3], 18.7 µM (not active).

One may read the EC50 as the concentration needed to bring the measured effect to its halfway point. Take `COc1ccc(-c2nc(C)c(C(C)=O)n2O)cc1`: the EC50 in assay [4] is on record as 12.3 µM (not active).

Consider `CCN(CC)CCCN1C(=O)C(O)=C(C(=O)c2ccccc2)C1c1ccccn1` (stereo unspecified), for which the IC50 in assay [5] is reported as > 100 µM (not active).

Consider `Cc1nc(O)c(C#N)c(C)c1CSc1ncccn1`, for which the EC50 in assay [6] is < 1 µM (active); in [7], 3.68 µM (active); in [8], > 112 µM (not active).

Regarding `Cc1ccc2c(c1)CC1(CN2C)C(=O)OC2(CCCCC2)OC1=O`, the 50% inhibitory concentration (IC50) at Prothrombin is 4.14 µM (active); in assay [9], > 93.1 µM (not active).

As for `C=CCn1c(NS(=O)(=O)c2ccccc2)c(S(=O)(=O)c2ccc(C)cc2)c2nc3ccccc3nc21`, the concentration for half-maximal inhibition (IC50) on SUMO-activating enzyme [10] was 1.5 µM (active); on SUMO-activating enzyme [11] it was 0.88 µM (active); on SUMO E1/E2, 4.29 µM (active); in assay [12], 68.1 µM (inactive); on Aminopeptidase N it was 36.2 µM (active); in assay [13] it was 1.61 µM (active).

Turning to `Fc1ccc(C(OCCN2CCN(CCCc3ccccc3)CC2)c2ccc(F)cc2)cc1`, the IC50 was > 20 µM (inactive) in assay [14]; 1.82 µM (active) in assay [15]; 2.07 µM (active) in assay [16]; > 10 µM (inactive) in [17]; 4.87 µM (active) in assay [18]; > 10 µM (inactive) in [19]. For the same compound, the IC50 in assay [20] is 0.903 µM (active); with Danio rerio, 5.73 µM (not active); in [21], 0.113 µM (active); in [22] it was 1.49 µM (active).
